# Reference: patent US20250243180A1, “TARGETED PROTEIN DEGRADATION” (Monte Rosa Therapeutics AG, priority 2023, published 2025)
# Like-named read-outs stand apart in the source and are kept apart here.
# Legend:
# CRBN-DDB1 = CRBN-DDB1 (Homo sapiens (Human), UniProt Q96SW2); experiment: Compound binding to CRBN by HTRF assay
# Procedure, shortened: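 Ki calculated via Cheng-Prusoff from geometric-mean EC50 values, after normalizing the HTRF ratio to lenalidomide (active) and DMSO (neutral) controls. Compounds (11 points, 1:3 steps) incubated 30 min at ambient temperature with CRBN-DDB1 2.5 nM, anti-His Tb cryptate and Cy5-thalidomide tracer 100 nM.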
# NEK7 = NEK7 (Homo sapiens (Human), UniProt Q8TDX7+Q96SW2); experiment: NEK7 NanoBiT degradation assay in Cal51 NEK7 NanoBiT cell line; type: cell-based; conditions: Cal51 NEK7 NanoBiT cells, 24 hours; for Dmax: CAL-51
# Chain of NEK7 (Q8TDX7 whole entry): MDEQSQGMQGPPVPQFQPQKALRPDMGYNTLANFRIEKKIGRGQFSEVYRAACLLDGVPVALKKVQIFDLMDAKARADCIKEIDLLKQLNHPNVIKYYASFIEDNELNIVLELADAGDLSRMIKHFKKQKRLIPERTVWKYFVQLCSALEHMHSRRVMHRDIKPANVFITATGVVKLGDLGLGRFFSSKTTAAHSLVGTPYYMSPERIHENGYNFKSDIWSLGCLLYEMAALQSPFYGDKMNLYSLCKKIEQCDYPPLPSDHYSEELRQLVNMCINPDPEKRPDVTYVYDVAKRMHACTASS
# Chain of NEK7 (Q96SW2 whole entry): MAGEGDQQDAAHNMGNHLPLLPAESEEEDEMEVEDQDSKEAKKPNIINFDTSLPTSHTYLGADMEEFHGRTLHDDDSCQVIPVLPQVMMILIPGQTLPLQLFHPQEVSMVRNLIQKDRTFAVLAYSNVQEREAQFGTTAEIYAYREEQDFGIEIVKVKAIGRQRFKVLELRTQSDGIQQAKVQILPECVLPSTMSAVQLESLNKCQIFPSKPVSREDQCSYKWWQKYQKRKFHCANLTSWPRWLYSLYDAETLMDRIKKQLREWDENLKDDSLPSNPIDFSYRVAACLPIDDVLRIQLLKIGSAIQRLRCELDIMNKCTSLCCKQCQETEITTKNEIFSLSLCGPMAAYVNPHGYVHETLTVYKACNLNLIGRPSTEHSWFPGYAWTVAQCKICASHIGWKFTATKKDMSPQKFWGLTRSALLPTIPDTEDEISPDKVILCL
# Chain of NEK7 (Q16531 2-1140 partner): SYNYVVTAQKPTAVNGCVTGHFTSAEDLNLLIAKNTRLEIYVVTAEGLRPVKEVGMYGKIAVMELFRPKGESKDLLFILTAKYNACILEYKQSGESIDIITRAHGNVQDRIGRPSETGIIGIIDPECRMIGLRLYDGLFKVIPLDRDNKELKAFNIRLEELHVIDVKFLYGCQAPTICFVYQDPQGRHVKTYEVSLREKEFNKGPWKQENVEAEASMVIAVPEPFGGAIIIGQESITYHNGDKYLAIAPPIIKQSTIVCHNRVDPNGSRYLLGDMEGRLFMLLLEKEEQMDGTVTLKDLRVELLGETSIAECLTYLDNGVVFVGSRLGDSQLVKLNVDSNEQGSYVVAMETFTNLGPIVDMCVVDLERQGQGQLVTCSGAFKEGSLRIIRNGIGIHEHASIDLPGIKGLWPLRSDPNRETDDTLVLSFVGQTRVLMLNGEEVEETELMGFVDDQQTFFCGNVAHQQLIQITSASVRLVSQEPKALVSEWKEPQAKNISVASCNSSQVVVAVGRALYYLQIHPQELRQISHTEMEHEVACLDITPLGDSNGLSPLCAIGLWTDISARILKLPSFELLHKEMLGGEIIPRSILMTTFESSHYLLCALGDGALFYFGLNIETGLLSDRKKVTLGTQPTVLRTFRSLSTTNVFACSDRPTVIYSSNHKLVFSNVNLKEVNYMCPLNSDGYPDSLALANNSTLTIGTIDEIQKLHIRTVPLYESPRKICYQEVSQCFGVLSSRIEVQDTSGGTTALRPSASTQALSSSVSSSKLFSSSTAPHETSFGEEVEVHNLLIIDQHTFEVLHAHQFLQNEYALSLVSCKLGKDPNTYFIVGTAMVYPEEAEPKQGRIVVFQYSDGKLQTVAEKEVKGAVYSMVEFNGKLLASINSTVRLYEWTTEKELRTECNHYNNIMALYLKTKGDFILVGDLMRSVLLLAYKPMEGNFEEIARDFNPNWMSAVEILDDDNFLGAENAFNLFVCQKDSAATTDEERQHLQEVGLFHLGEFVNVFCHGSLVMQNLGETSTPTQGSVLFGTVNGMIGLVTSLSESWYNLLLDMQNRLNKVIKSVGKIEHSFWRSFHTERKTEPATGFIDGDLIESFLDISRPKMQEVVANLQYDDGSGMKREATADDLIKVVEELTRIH
# Procedure, shortened: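 EC50 comes from a 4-parameter fit of control-normalized luminescence. The luminescence reports HiBiT-NEK7 (endogenous knock-in) complemented by stably expressed LgBiT in Cal51 cells after 24 h compound exposure at 37 °C. Final concentrations ran 1 μM to 0.05 nM, with Endurazine substrate present in the medium throughout.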
# [1] = NEK7 degradation, read-out: NanoBiT Dmax
# [2] = NEK7 degradation, read-out: NanoBiT DC50
# Chain of CRBN-DDB1 (Q96SW2 whole entry): as the sequence (Q96SW2 whole entry) above
# Chain of CRBN-DDB1 (Q16531 whole entry partner): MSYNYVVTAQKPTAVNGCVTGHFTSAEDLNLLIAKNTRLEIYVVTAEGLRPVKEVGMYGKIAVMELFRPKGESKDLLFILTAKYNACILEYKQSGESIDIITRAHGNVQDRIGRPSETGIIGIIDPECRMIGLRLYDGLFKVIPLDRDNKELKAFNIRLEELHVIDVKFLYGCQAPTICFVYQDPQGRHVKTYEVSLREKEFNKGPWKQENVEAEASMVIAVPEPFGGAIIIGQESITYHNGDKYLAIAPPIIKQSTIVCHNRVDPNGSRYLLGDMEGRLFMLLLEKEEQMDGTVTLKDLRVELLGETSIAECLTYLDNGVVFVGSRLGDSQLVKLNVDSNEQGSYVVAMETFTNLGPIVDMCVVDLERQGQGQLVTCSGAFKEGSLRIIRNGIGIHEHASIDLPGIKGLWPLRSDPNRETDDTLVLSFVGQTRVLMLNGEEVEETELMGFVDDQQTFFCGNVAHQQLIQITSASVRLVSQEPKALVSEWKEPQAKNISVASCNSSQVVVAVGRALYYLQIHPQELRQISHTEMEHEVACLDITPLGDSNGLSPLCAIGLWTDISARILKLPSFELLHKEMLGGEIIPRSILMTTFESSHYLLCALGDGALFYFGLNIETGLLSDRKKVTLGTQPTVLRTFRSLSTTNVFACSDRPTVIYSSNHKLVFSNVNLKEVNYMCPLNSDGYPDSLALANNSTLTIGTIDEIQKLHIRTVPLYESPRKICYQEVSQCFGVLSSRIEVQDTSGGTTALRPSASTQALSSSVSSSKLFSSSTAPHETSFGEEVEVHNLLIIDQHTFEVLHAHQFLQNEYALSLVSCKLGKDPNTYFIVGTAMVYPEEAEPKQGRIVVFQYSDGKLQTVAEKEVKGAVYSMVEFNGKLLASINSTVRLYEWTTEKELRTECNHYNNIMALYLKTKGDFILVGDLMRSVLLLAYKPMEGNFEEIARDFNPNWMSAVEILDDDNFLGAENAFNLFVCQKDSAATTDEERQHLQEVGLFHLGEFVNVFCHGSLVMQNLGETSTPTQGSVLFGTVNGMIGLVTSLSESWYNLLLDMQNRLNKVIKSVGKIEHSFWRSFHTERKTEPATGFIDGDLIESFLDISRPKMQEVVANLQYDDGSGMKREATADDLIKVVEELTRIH
SMILES,EC50 (CRBN-DDB1),"EC50 (CRBN-DDB1; HTRF class, Cereblon binding)",Dmax (NEK7; read-out: NEK7 NanoBiT Dmax),Dmax (NEK7; [1]),DC50 (NEK7; read-out: NEK7 NanoBiT DC50),DC50 (NEK7; [2])
"CC(C)(C(=O)NCc1cc(Cl)c(C2CCC(=O)NC2=O)c(Cl)c1)c1ncc(C2CC2)cn1 (stereo not drawn) [Compound 1, 2-(5-cyclopropylpyrimidin-2-yl)-N-(3,5-dichloro-4-(2,6-dioxopiperidin-3-yl)benzyl)-2-methylpropan-amide]",150 nM,100 to 1000 nM,89%,> 75%,9 nM,≤ 100 nM
Cc1noc(C(C)(C)C(=O)NCc2cc(Cl)c(C3CCC(=O)NC3=O)c(Cl)c2)n1 (stereo not drawn) [Compound 164],240 nM,100 to 1000 nM,68%,50 to 75%,66 nM,≤ 100 nM
CC(C)(C(=O)NCc1cc(Cl)c(C2CCC(=O)NC2=O)c(Cl)c1)c1cc(C(F)F)ncn1 (stereo not drawn) [Compound 159],280 nM,100 to 1000 nM,79%,> 75%,28 nM,≤ 100 nM
Cn1ccc(C(C)(C)C(=O)NCc2cc(Cl)c(C3CCC(=O)NC3=O)c(Cl)c2)cc1=O (stereo not drawn) [Compound 75],300 nM,100 to 1000 nM,92%,> 75%,14 nM,≤ 100 nM
CC(C)(C(=O)NCc1cc(Cl)c(C2CCC(=O)NC2=O)c(Cl)c1)c1cc(C2CC2)on1 (stereo not drawn) [Compound 185],220 nM,100 to 1000 nM,83%,> 75%,15 nM,≤ 100 nM
CC(C)(C(=O)NCc1cc(Cl)c(C2CCC(=O)NC2=O)c(Cl)c1)c1cccc(S(N)(=O)=O)c1 (stereo not drawn) [Compound 60],60 nM,≤ 100 nM,96%,> 75%,2 nM,≤ 100 nM
"CC(C)(C(=O)NCc1cc(Cl)c([C@@H]2CCC(=O)NC2=O)c(Cl)c1)c1ncccn1 (single isomer, unassigned) [Compound 179]",4170 nM,> 1000 nM,59%,50 to 75%,578 nM,100 to 1000 nM
CC(C)(C(=O)NCc1ccc(C2CCC(=O)NC2=O)c(Br)c1)c1ccc(F)cc1 (stereo not drawn) [Compound 64],490 nM,100 to 1000 nM,86%,> 75%,43 nM,≤ 100 nM
CC(C)(C(=O)NCc1cc(Cl)c(C2CCC(=O)NC2=O)c(Cl)c1)c1ccc2c(c1)CNS2(=O)=O (stereo not drawn) [Compound 40],100 nM,≤ 100 nM,93%,> 75%,8 nM,≤ 100 nM
"Cn1cccc(C(C)(C)C(=O)NCc2cc(Cl)c(C3CCC(=O)NC3=O)c(Cl)c2)c1=O (stereo not drawn) [Compound 148, N-(3,5-dichloro-4-(2,6-dioxopiperidin-3-yl)benzyl)-2-methyl-2-(1-methyl-2-oxo-1,2-dihydropyridin-3-yl)propanamide]",150 nM,100 to 1000 nM,58%,50 to 75%,176 nM,100 to 1000 nM
CC(C)(C(=O)NCc1cc(Cl)c(C2CCC(=O)NC2=O)c(Cl)c1)c1nocc1C1CC1 (stereo not drawn) [Compound 198],130 nM,100 to 1000 nM,83%,> 75%,22 nM,≤ 100 nM
"Cn1ncc2ccc(C3(C(=O)NCc4cc(Cl)c(C5CCC(=O)NC5=O)c(Cl)c4)CC(=O)C3)cc21 (stereo not drawn) [Compound 134, N-(3,5-dichloro-4-(2,6-dioxopiperidin-3-yl)benzyl)-1-(1-methyl-1H-indazol-6-yl)-3-oxocyclobutane-1-carboxamide]",70 nM,≤ 100 nM,93%,> 75%,2 nM,≤ 100 nM
CC(C)(C(=O)NCc1cc(Cl)c(C2CCC(=O)NC2=O)c(Cl)c1)c1ccns1 (stereo not drawn) [Compound 125],70 nM,≤ 100 nM,71%,50 to 75%,54 nM,≤ 100 nM
"O=C1CCC(c2c(Cl)cc(CNC(=O)C3(c4ncccn4)CCC3)cc2Cl)C(=O)N1 (stereo not drawn) [Compound 169, N-(3,5-dichloro-4-(2,6-dioxopiperidin-3-yl)benzyl)-1-(pyrimidin-2-yl)cyclobutane-1-carboxamide]",180 nM,100 to 1000 nM,75%,50 to 75%,42 nM,≤ 100 nM
O=C1CCC(c2c(Cl)cc(CNC(=O)C3(c4ccc(F)cc4)COC3)cc2Cl)C(=O)N1 (stereo not drawn) [Compound 140],90 nM,≤ 100 nM,89%,> 75%,14 nM,≤ 100 nM
"O=C1CCC(c2c(Cl)cc(CNC(=O)C3(c4ccc(F)cc4)CC(F)(F)C3)cc2Cl)C(=O)N1 (stereo not drawn) [Compound 139, N-(3,5-dichloro-4-(2,6-dioxopiperidin-3-yl)benzyl)-3,3-difluoro-1-(4-fluorophenyl)cyclobutane-carboxamide]",40 nM,≤ 100 nM,90%,> 75%,8 nM,≤ 100 nM
CC(C)(C(=O)NCc1cc(Cl)c(C2CCC(=O)NC2=O)c(Cl)c1)c1ccn2nccc2c1 (stereo not drawn) [Compound 82],90 nM,≤ 100 nM,96%,> 75%,1 nM,≤ 100 nM
CC(C)(C(=O)NCc1cc(Cl)c(C2CCC(=O)NC2=O)c(Cl)c1)c1ccc(OC(F)F)nn1 (stereo not drawn) [Compound 210],460 nM,100 to 1000 nM,96%,> 75%,2 nM,≤ 100 nM
"CC(C)(C(=O)NCc1cc(Cl)c([C@H]2CCC(=O)NC2=O)c(Cl)c1)c1ncc(C#N)cn1 (single isomer, unassigned) [Compound 153]",≥ 10000 nM,> 1000 nM,90%,> 75%,53 nM,≤ 100 nM
"CC(C)(C(=O)NCc1cc(Cl)c(C2CCC(=O)NC2=O)c(Cl)c1)c1cccnn1 (stereo not drawn) [Compound 7, N-(3,5-dichloro-4-(2,6-dioxopiperidin-3-yl)benzyl)-2-methyl-2-(pyridazin-3-yl)propanamide]",150 nM,100 to 1000 nM,72%,50 to 75%,61 nM,≤ 100 nM
"O=C1CCC(c2c(Cl)cc(CNC(=O)C3(c4ccc5cn[nH]c5c4)CCOCC3)cc2Cl)C(=O)N1 (stereo not drawn) [Compound 131, N-(3,5-dichloro-4-(2,6-dioxopiperidin-3-yl)benzyl)-4-(1H-indazol-6-yl)tetrahydro-2H-pyran-4-carboxamide]",20 nM,≤ 100 nM,96%,> 75%,1 nM,≤ 100 nM
"CC(C)(C(=O)NCc1cc(F)c(C2CCC(=O)NC2=O)c(Cl)c1)c1cc(F)ccn1 (stereo not drawn) [Compound 260, N-(3-chloro-4-(2,6-dioxopiperidin-3-yl)-5-fluorobenzyl)-2-(4-fluoropyridin-2-yl)-2-methylpropanamide]",110 nM,100 to 1000 nM,47%,≤ 50%,480 nM,100 to 1000 nM
CC(C)(C(=O)NCc1cc(Cl)c(C2CCC(=O)NC2=O)c(Cl)c1)c1cncc(F)c1 (stereo not drawn) [Compound 85],40 nM,≤ 100 nM,81%,> 75%,11 nM,≤ 100 nM
